Assay results taken from patent publication US20040242591A1, “Oxazolidinone derivatives as pontential antimicrobials” (priority 2001, published 2004).

Legend:
[1] = system: MRSA 15187; test: MIC by agar incorporation method, MRSA 15187; format: cell-based, Methicillin Resistant Staphylococcus aureus; set-up: unit not given here; conditions: Mueller Hinton agar, 10^4 CFU/spot, 24 hours
Description: 2) MRSA 15187—Methicillin Resistant Staphylococcus aureus

[2] = system: S.aureus ATCC 25923; test: MIC by agar incorporation method, S.aureus 25923; format: cell-based, Staphylococus aureus; set-up: unit not given here; conditions: Mueller Hinton agar, 10^4 CFU/spot, 18 hours
[3] = system: Ent. faecalis ATCC 29212; test: MIC by agar incorporation method, E.faecalis 29212; format: cell-based, Enterococcus faecalis; set-up: unit not given here; conditions: Mueller Hinton agar, 10^4 CFU/spot, 18 hours
Description: 3) Ent. faecalis ATCC 29212—Enterococcus faecalis ATCC 29212

[4] = system: MRSA 33; test: MIC by agar incorporation method, MRSA 33; format: cell-based, Methicillin Resistant Staphylococcus aureus; set-up: unit not given here; conditions: Mueller Hinton agar, 10^4 CFU/spot, 24 hours
[5] = system: MRSA 562; test: MIC by agar incorporation method, MRSA 562; format: cell-based, Methicillin Resistant Staphylococcus aureus; set-up: unit not given here; conditions: Mueller Hinton agar, 10^4 CFU/spot, 24 hours
[6] = system: Strep. pne. ATCC 6303; test: MIC by agar incorporation method, S. pneum 6303; format: cell-based, Streptococcus pneumoniae; conditions: Mueller Hinton agar, 10^4 CFU/spot, 18 hours
Description: 5) Strep. pne. ATCC 6303—Streptococcus pneumoniae ATCC 6303

[7] = system: Strep.pyog. ATCC 19615; test: MIC by agar incorporation method, S.pyogenes 19615; format: cell-based, Streptococcus pyogenes; set-up: unit not given here; conditions: Mueller Hinton agar, 10^4 CFU/spot, 18 hours
Description: 6) Strep.pyog. ATCC 19615—Streptococcus pyogenes

[8] = system: VRE 6A; test: MIC by agar incorporation method, VRE 6A; format: cell-based, Enterococcus faecium; set-up: unit not given here; conditions: Mueller Hinton agar, 10^4 CFU/spot, 18 hours
Description: 4) Ent. faecium […]—Enterococcus faecium 6A Van®, Cipro®

[9] = system: S. pneum AB 34; test: MIC by agar incorporation method, S. pneum AB 34; format: cell-based, Streptococcus pneumoniae; set-up: unit not given here; conditions: Mueller Hinton agar, 10^4 CFU/spot, 18 hours

Structure (SMILES) | In Vitro (MIC) MRSA 15187 [1] | In Vitro (MIC) S.aureus 25923 [2] | In Vitro (MIC) E.faecalis 29212 [3] | In Vitro (MIC) MRSA 33 [4] | In Vitro (MIC) MRSA 562 [5] | In Vitro (MIC) S. pneum 6303 [6] | In Vitro (MIC) S.pyogenes 19615 [7] | In Vitro (MIC) VRE 6A [8] | In Vitro (MIC) S. pneum AB 34 [9]
CC(Cl)C(=O)NC[C@H]1CN(c2ccc(N3CCN(Cc4cc(Br)c([N+](=O)[O-])s4)CC3)c(F)c2)C(=O)O1 (stereo partly drawn) [Compound No. 51] | 8 | 8 | 8 | 8 | 8 | 16 µg/mL | 16 | 8 | 16
CC(=O)NC[C@H]1CN(c2ccc(N3CCCN(C(=O)c4ccc([N+](=O)[O-])o4)CC3)c(F)c2)C(=O)O1 [Compound No. 55, (S)-N-[[3-[3-Fluoro-4-[N-1-[4-{2-furoyl-(5-nitro)}]homopiperazinyl]phenyl]-2-oxo-5-oxazolidinyl]methyl]acetamide] | 0.5 | 2 | 0.25 | 2 | 1 | 8 µg/mL | 4 | 0.25 | 8
CC(=O)NC[C@H]1CN(c2ccc(N3CC4C(CNCc5ccc([N+](=O)[O-])o5)C4C3)c(F)c2)C(=O)O1 (stereo partly drawn) [Compound No. 99, (S)-N-[[3-[3-Fluoro-4[N-1-[3-{N-2-furyl-(5-nitro)methyl}-aminomethyl]-3-azabicyclo[3.1.0]hexane]phenyl]-2-oxo-5-oxazolidinyl]methyl]acetamide] | >8 | >8 | >8 | >8 | >8 | 4 µg/mL | 2 | 8 | 4
CC(=O)NC[C@H]1CN(c2ccc(N3CCCC(=O)C3)c(F)c2)C(=O)O1 [Compound No. 96, (S)-N-[[3-{3-Fluoro-4-(3-oxo-piperidin-1-yl)-phenyl}-2-oxo-5-oxazolidinyl]methyl]acetamide] | 16 | 16 | 8 | 16 | 8 | 4 µg/mL | 4 | 8 | 4
CC(=O)NC[C@H]1CN(c2ccc(N3CCCN(C(=O)c4ccc([N+](=O)[O-])s4)CC3)c(F)c2)C(=O)O1 [Compound No. 54, (S)-N-[[3-[3-Fluoro-4-[N-1-[4-{2-thiophenoyl-(5-nitro)}]homopiperazinyl]phenyl]-2-oxo-5-oxazolidinyl]methyl]acetamide] | 0.5 | 1 | 1 | 0.5 | 0.5 | 8 µg/mL | 0.25 | 0.5 | 8
CC(=O)NC[C@H]1CN(c2ccc(N3CCN(Cc4coc([N+](=O)[O-])c4)CC3)c(F)c2)C(=O)O1 [Compound No. 8, (S)-N-[[3-[3-Fluoro-4-[N-1-[4-{3-furyl(5-nitro)methyl}]piperazinyl]phenyl]-2-oxo-5-oxazolidinyl]methyl]acetamide] | 8 | 8 | 8 | 4 | 4 | 8 µg/mL | 4 | 4 | 16
O=C(CCl)NC[C@H]1CN(c2ccc(N3CCN(Cc4ccc([N+](=O)[O-])o4)CC3)c(F)c2)C(=O)O1 [Compound No. 46] | 2 | 2 | 2 | 2 | 2 | 0.5 µg/mL | 0.5 | 2 | 1
